# Reference: PubChem BioAssay AID2060885 (Molecular Pharmacology Branch, DTP, NCI, 2025)
# Tested on: NCI-H23 complex spheroids with HUVEC/MSC, viability
# Assay: Anticancer human tumor NCI-H23 cell line growth inhibition [RAS];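 further: spheroids exposed to compound for 7 days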;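 on viability, T/C: 100% = DMSO vehicle control viability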
# Conditions: for IC50: curve of first compound; for viability, T/C: stronger effect = lower value
# Procedure, shortened: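 Multi-cell-type spheroids: tumor cells plus HUVEC endothelial cells and mesenchymal stem cells. RAS-pathway inhibitors were combined with targeted agents, each dosed in half-log steps down from clinical Cmax, or from 10 microM when Cmax was unknown.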
# [1] = second compound 0.000949 µM, first compound 0.0316 µM
# [2] = second compound 0.000949 µM, first compound 0.1 µM
# [3] = second compound 0.000949 µM, first compound 0.316 µM
# [4] = second compound 0.000949 µM, first compound 1 µM
# [5] = second compound 0.003 µM, first compound 0.0316 µM
# [6] = second compound 0.003 µM, first compound 0.1 µM
# [7] = second compound 0.003 µM, first compound 0.316 µM
# [8] = second compound 0.003 µM, first compound 1 µM
# [9] = second compound 0.00949 µM, first compound 0.0316 µM
# [10] = second compound 0.00949 µM, first compound 0.1 µM
# [11] = second compound 0.00949 µM, first compound 0.316 µM
# [12] = second compound 0.00949 µM, first compound 1 µM
# [13] = second compound 0.03 µM, first compound 0.0316 µM
# [14] = second compound 0.03 µM, first compound 0.1 µM
# [15] = second compound 0.03 µM, first compound 0.316 µM
# [16] = second compound 0.03 µM, first compound 1 µM
# [17] = second compound 0.0949 µM, first compound 0.0316 µM
# [18] = second compound 0.0949 µM, first compound 0.1 µM
# [19] = second compound 0.0949 µM, first compound 0.316 µM
# [20] = second compound 0.0949 µM, first compound 1 µM
# [21] = second compound 0.3 µM, first compound 0.0316 µM
# [22] = second compound 0.3 µM, first compound 0.1 µM
# [23] = second compound 0.3 µM, first compound 0.316 µM
# [24] = second compound 0.3 µM, first compound 1 µM
smiles,measurement,setting,value
CC(Nc1ccc2c(c1)OCCn1cc(N3C(=O)OCC3C(F)F)nc1-2)C(N)=O (centres undefined) + CCn1c(-c2cc(N3CCN(C)CC3)cnc2C(C)OC)c2c3cc(ccc31)-c1csc(n1)CC(NC(=O)C1CC1C)C(=O)N1CCCC(N1)C(=O)OCC(C)(C)C2,IC50,second compound 0.000949 µM,< 31.6 nM
same,IC50,second compound 0.003 µM,< 31.6 nM
same,IC50,second compound 0.00949 µM,< 31.6 nM
same,IC50,second compound 0.03 µM,< 31.6 nM
same,IC50,second compound 0.0949 µM,< 31.6 nM
same,IC50,second compound 0.3 µM,< 31.6 nM
same,"viability, T/C",[1],38.9%
same,"viability, T/C",[2],34.7%
same,"viability, T/C",[3],29.4%
same,"viability, T/C",[4],35.1%
same,"viability, T/C","second compound 0.000949 µM, first compound 3.16 µM",33.6%
same,"viability, T/C","second compound 0.000949 µM, first compound 10 µM",21.6%
same,"viability, T/C",[5],34.9%
same,"viability, T/C",[6],24.6%
same,"viability, T/C",[7],25.3%
same,"viability, T/C",[8],25.1%
same,"viability, T/C","second compound 0.003 µM, first compound 3.16 µM",23.1%
same,"viability, T/C","second compound 0.003 µM, first compound 10 µM",17.6%
same,"viability, T/C",[9],31.1%
same,"viability, T/C",[10],24.5%
same,"viability, T/C",[11],21.1%
same,"viability, T/C",[12],22.5%
same,"viability, T/C","second compound 0.00949 µM, first compound 3.16 µM",23.3%
same,"viability, T/C","second compound 0.00949 µM, first compound 10 µM",16.7%
same,"viability, T/C",[13],25.5%
same,"viability, T/C",[14],19.6%
same,"viability, T/C",[15],19%
same,"viability, T/C",[16],19.2%
same,"viability, T/C","second compound 0.03 µM, first compound 3.16 µM",13.9%
same,"viability, T/C","second compound 0.03 µM, first compound 10 µM",14.5%
same,"viability, T/C",[17],16.9%
same,"viability, T/C",[18],14.9%
same,"viability, T/C",[19],13.6%
same,"viability, T/C",[20],15.2%
same,"viability, T/C","second compound 0.0949 µM, first compound 3.16 µM",10%
same,"viability, T/C","second compound 0.0949 µM, first compound 10 µM",10.8%
same,"viability, T/C",[21],14%
same,"viability, T/C",[22],13.3%
same,"viability, T/C",[23],12.8%
same,"viability, T/C",[24],13%
same,"viability, T/C","second compound 0.3 µM, first compound 3.16 µM",11.9%
same,"viability, T/C","second compound 0.3 µM, first compound 10 µM",11.4%
O=C(c1ccc(F)c(F)c1Nc1ccc(I)cc1F)N1CC(O)([C@@H]2CCCCN2)C1 + CCn1c(-c2cc(N3CCN(C)CC3)cnc2C(C)OC)c2c3cc(ccc31)-c1csc(n1)CC(NC(=O)C1CC1C)C(=O)N1CCCC(N1)C(=O)OCC(C)(C)C2,IC50,second compound 0.000949 µM,< 3.16 nM
same,IC50,second compound 0.003 µM,< 3.16 nM
same,IC50,second compound 0.00949 µM,< 3.16 nM
same,IC50,second compound 0.03 µM,< 3.16 nM
same,IC50,second compound 0.0949 µM,< 3.16 nM
same,IC50,second compound 0.3 µM,< 3.16 nM
same,"viability, T/C","second compound 0.000949 µM, first compound 0.00316 µM",40.8%
same,"viability, T/C","second compound 0.000949 µM, first compound 0.01 µM",42.1%
same,"viability, T/C",[1],30.3%
same,"viability, T/C",[2],27.7%
same,"viability, T/C",[3],14.7%
same,"viability, T/C",[4],7.09%
same,"viability, T/C","second compound 0.003 µM, first compound 0.00316 µM",31.5%
same,"viability, T/C","second compound 0.003 µM, first compound 0.01 µM",33.4%
same,"viability, T/C",[5],22.9%
same,"viability, T/C",[6],20.1%
same,"viability, T/C",[7],10.2%
same,"viability, T/C",[8],5.97%
same,"viability, T/C","second compound 0.00949 µM, first compound 0.00316 µM",33.3%
same,"viability, T/C","second compound 0.00949 µM, first compound 0.01 µM",20.2%
same,"viability, T/C",[9],19%
same,"viability, T/C",[10],10.2%
same,"viability, T/C",[11],5.94%
same,"viability, T/C",[12],5.43%
same,"viability, T/C","second compound 0.03 µM, first compound 0.00316 µM",24%
same,"viability, T/C","second compound 0.03 µM, first compound 0.01 µM",15.2%
same,"viability, T/C",[13],10.5%
same,"viability, T/C",[14],7.97%
same,"viability, T/C",[15],5.26%
same,"viability, T/C",[16],5.71%
same,"viability, T/C","second compound 0.0949 µM, first compound 0.00316 µM",16.1%
same,"viability, T/C","second compound 0.0949 µM, first compound 0.01 µM",11.9%
same,"viability, T/C",[17],8.79%
same,"viability, T/C",[18],6.35%
same,"viability, T/C",[19],5.88%
same,"viability, T/C",[20],5.06%
same,"viability, T/C","second compound 0.3 µM, first compound 0.00316 µM",12.4%
same,"viability, T/C","second compound 0.3 µM, first compound 0.01 µM",9.36%
same,"viability, T/C",[21],8.61%
same,"viability, T/C",[22],5.57%
same,"viability, T/C",[23],5.66%
same,"viability, T/C",[24],6.36%
